In publication PMC4457528, “Identification of Novel Small Molecule Inhibitors of Oncogenic RET Kinase” (PLoS ONE, 2015):
Where two headings read alike, the source gives them in different places.

How the values were obtained:
Test in all cases: KinomeScan kinase panel, single concentration 10 µM
Type in all cases: binding
[1] = target: T1, KinomeScan kinase panel (Homo sapiens, UniProt Q56UN5); settings: kinase YSK4; 10 µM; read-out: score (%)
T1 construct: purchased DiscoveRx (KinomeScan)

[2] = target: T2, KinomeScan kinase panel (Homo sapiens, UniProt O75747); settings: PIK3C2G, 10 µM; read-out: score (%)
T2 construct: purchased DiscoveRx (KinomeScan)

[3] = target: T3, KinomeScan kinase panel (Homo sapiens, UniProt Q9UPZ9); settings: ICK, 10 µM; read-out: score (%)
T3 construct: purchased DiscoveRx (KinomeScan)
T3 sequence (Q9UPZ9 whole entry): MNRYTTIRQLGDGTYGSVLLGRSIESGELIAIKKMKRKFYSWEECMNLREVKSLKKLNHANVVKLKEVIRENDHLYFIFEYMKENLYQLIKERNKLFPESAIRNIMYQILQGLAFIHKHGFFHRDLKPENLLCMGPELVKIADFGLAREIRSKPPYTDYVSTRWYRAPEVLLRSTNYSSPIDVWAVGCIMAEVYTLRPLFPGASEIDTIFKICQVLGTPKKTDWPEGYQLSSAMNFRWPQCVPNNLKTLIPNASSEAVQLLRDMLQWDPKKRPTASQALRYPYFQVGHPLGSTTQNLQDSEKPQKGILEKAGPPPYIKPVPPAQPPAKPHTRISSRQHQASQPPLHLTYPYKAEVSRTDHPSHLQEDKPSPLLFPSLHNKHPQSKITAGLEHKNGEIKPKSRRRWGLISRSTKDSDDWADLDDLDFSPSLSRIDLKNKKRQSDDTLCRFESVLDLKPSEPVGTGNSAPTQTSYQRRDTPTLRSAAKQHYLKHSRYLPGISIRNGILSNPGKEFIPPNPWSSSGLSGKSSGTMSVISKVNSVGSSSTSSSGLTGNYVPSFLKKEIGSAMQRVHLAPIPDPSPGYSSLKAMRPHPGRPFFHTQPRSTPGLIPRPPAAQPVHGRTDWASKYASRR

[4] = target: T4, KinomeScan kinase panel (Homo sapiens, UniProt O95382); settings: ASK2, 10 µM; read-out: score (%)
T4 construct: purchased DiscoveRx (KinomeScan)
T4 sequence (O95382 whole entry): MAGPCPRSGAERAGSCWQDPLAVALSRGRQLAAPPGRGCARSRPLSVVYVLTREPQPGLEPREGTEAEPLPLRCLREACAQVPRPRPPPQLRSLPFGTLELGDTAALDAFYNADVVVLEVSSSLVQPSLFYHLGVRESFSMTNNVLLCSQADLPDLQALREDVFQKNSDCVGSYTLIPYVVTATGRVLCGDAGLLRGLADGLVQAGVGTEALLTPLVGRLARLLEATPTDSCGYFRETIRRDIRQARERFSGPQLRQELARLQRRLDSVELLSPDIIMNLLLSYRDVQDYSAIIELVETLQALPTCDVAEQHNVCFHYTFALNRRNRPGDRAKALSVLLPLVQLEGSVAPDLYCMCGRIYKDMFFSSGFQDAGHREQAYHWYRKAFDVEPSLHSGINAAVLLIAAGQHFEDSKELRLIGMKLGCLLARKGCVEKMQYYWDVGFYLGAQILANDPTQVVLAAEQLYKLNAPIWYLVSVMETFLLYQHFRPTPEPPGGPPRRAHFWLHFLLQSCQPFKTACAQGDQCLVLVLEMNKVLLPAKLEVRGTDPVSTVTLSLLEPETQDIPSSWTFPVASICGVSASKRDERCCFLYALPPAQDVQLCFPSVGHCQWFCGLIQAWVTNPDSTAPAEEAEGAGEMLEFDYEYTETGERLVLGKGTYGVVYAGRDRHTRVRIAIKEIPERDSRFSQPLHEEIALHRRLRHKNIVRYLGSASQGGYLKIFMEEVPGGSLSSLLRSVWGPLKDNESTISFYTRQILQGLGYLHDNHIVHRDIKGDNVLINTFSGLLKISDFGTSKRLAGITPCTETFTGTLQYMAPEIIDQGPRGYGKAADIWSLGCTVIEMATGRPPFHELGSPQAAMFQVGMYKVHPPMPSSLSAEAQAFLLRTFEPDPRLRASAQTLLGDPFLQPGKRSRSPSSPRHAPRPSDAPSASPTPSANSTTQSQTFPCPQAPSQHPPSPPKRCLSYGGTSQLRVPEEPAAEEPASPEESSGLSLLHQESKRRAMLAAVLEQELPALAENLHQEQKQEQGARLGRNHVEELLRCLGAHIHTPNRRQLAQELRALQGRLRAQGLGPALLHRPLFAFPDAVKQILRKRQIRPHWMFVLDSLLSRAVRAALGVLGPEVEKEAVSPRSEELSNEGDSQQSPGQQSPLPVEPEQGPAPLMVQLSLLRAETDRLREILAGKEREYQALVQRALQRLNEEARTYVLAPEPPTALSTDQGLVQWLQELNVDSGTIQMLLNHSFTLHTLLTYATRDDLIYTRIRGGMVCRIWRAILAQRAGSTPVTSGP

[5] = target: T5, KinomeScan kinase panel (Homo sapiens, UniProt Q8IVW4); settings: CDKL3, 10 µM; read-out: score (%)
T5 construct: purchased DiscoveRx (KinomeScan)

[6] = target: T6, KinomeScan kinase panel (Homo sapiens, UniProt Q13627); settings: DYRK1A, 10 µM; read-out: score (%)
T6 construct: purchased DiscoveRx (KinomeScan)

[7] = target: T7, KinomeScan kinase panel (Homo sapiens, UniProt P20794); settings: MAK, 10 µM; read-out: score (%)
T7 construct: purchased DiscoveRx (KinomeScan)
T7 sequence (P20794 whole entry): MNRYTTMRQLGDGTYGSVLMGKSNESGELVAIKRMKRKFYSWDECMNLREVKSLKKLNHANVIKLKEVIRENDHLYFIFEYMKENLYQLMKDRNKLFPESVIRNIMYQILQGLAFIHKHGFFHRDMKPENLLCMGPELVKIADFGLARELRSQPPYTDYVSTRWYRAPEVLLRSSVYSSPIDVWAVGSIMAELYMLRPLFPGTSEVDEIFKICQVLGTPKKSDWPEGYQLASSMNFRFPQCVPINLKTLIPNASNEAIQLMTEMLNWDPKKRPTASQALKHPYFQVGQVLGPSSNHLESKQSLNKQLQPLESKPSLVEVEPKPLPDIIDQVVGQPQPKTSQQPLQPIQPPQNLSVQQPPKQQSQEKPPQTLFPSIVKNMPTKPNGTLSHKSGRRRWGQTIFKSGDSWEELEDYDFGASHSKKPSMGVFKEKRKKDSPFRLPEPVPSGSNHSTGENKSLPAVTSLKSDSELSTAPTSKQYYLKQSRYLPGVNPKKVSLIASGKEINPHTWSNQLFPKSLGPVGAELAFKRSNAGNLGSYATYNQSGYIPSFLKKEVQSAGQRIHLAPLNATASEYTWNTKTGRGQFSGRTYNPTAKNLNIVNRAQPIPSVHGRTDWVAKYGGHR

[8] = target: T8, KinomeScan kinase panel (Homo sapiens, UniProt Q9Y2K2); settings: 10 µM
T8 construct: purchased DiscoveRx (KinomeScan)

[9] = target: T9, KinomeScan kinase panel (Homo sapiens, UniProt P32298); settings: GRK4, 10 µM; read-out: score (%)
T9 construct: purchased DiscoveRx (KinomeScan)
T9 sequence (P32298 whole entry): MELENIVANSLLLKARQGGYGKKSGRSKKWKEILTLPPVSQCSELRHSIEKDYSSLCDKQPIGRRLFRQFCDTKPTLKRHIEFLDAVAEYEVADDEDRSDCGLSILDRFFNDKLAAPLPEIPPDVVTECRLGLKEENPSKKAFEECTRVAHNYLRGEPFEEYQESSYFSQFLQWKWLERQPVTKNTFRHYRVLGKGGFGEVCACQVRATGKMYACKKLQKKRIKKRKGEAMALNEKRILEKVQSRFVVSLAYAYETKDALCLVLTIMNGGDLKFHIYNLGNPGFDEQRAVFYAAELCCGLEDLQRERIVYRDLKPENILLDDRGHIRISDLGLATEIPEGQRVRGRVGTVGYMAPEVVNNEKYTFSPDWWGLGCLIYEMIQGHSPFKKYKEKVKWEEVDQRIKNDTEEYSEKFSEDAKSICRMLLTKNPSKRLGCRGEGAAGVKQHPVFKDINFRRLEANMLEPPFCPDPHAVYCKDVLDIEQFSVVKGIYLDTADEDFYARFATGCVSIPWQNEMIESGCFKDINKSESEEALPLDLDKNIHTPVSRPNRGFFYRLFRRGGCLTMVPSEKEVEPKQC

[10] = target: T10, KinomeScan kinase panel (Homo sapiens, UniProt Q9Y2H9); settings: MAST1, 10 µM; read-out: score (%)
T10 construct: purchased DiscoveRx (KinomeScan)

[11] = target: T11, KinomeScan kinase panel (Homo sapiens, UniProt P11802); settings: read-out: score (%)
T11 construct: purchased DiscoveRx (KinomeScan)
T11 sequence (P11802 whole entry): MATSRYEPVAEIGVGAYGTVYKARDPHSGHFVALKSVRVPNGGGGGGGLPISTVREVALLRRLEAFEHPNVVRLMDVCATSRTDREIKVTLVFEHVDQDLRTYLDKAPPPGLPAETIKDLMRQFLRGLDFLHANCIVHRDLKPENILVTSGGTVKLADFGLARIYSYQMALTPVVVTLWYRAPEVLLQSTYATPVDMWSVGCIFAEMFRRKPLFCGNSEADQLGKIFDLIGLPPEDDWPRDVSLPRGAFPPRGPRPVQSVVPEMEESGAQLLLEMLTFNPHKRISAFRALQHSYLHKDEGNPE

[12] = target: T12, KinomeScan kinase panel (Homo sapiens, UniProt Q8NG66); settings: NEK11, 10 µM; read-out: score (%)
T12 construct: purchased DiscoveRx (KinomeScan)

[13] = target: T13, KinomeScan kinase panel (Homo sapiens, UniProt P10721, A829P); settings: KIT(A829P), 10 µM; read-out: score (%)
T13 construct: purchased DiscoveRx (KinomeScan)

[14] = target: T14, KinomeScan kinase panel (Homo sapiens, UniProt O14936); settings: CASK, 10 µM; read-out: score (%)
T14 construct: purchased DiscoveRx (KinomeScan)

[15] = target: T15, KinomeScan kinase panel (Homo sapiens, UniProt Q5S007, G2019S); settings: LRRK2(G2019S), 10 µM; read-out: score (%)
T15 construct: purchased DiscoveRx (KinomeScan)

[16] = target: T16, KinomeScan kinase panel (Homo sapiens, UniProt P48729); settings: CSNK1A1, 10 µM; read-out: score (%)
T16 construct: purchased DiscoveRx (KinomeScan)

[17] = target: T17, KinomeScan kinase panel (Homo sapiens, UniProt Q13163); settings: MEK5, 10 µM; read-out: score (%)
T17 construct: purchased DiscoveRx (KinomeScan)

[18] = target: T18, KinomeScan kinase panel (Homo sapiens, UniProt P51956); settings: NEK3, 10 µM; read-out: score (%)
T18 construct: purchased DiscoveRx (KinomeScan)

[19] = target: T19, KinomeScan kinase panel (Homo sapiens, UniProt P00533, T790M); settings: EGFR(T790M), 10 µM
T19 construct: purchased DiscoveRx (KinomeScan)

[20] = target: T20, KinomeScan kinase panel (Homo sapiens, UniProt P42345); settings: MTOR, 10 µM; read-out: score (%)
T20 construct: purchased DiscoveRx (KinomeScan)

[21] = target: T21, KinomeScan kinase panel (Homo sapiens, UniProt Q9BQI3); settings: EIF2AK1, 10 µM; read-out: score (%)
T21 construct: purchased DiscoveRx (KinomeScan)

[22] = target: T22, KinomeScan kinase panel (Homo sapiens, UniProt P41743); settings: kinase PRKCI; 10 µM; read-out: score (%)
T22 construct: purchased DiscoveRx (KinomeScan)

[23] = target: T23, KinomeScan kinase panel (Mycobacterium tuberculosis, UniProt P9WI81); settings: PKNB(M.tuberculosis), 10 µM; read-out: score (%)
T23 construct: purchased DiscoveRx (KinomeScan)

[24] = target: T24, KinomeScan kinase panel (Homo sapiens, UniProt P10721, D816H); settings: KIT(D816H), 10 µM; read-out: score (%)
T24 construct: purchased DiscoveRx (KinomeScan)

[25] = target: T25, KinomeScan kinase panel (Homo sapiens, UniProt Q8WU08); settings: kinase YANK1; 10 µM; read-out: score (%)
T25 construct: purchased DiscoveRx (KinomeScan)

[26] = target: T26, KinomeScan kinase panel (Plasmodium falciparum, UniProt P61075); settings: PFPK5(P.falciparum), 10 µM; read-out: score (%)
T26 construct: purchased DiscoveRx (KinomeScan)
T26 sequence (P61075 whole entry): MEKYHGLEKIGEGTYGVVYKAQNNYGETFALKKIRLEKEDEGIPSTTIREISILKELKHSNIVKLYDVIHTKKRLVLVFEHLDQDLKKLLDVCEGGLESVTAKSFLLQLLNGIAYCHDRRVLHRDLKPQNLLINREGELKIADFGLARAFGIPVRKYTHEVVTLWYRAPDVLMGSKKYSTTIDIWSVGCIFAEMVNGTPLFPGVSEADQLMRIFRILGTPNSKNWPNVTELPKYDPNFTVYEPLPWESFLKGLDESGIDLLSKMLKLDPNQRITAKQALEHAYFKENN

[27] = target: T27, KinomeScan kinase panel (Homo sapiens, UniProt P51957); settings: NEK4, 10 µM; read-out: score (%)
T27 construct: purchased DiscoveRx (KinomeScan)

[28] = target: T28, KinomeScan kinase panel (Homo sapiens, UniProt P42336, I800L); settings: PIK3CA(I800L), 10 µM; read-out: score (%)
T28 construct: purchased DiscoveRx (KinomeScan)

[29] = target: T29, KinomeScan kinase panel (Homo sapiens, UniProt Q9UL54); settings: kinase TAOK2; 10 µM; read-out: score (%)
T29 construct: purchased DiscoveRx (KinomeScan)

[30] = target: T30, KinomeScan kinase panel (Homo sapiens, UniProt Q00532); settings: CDKL1, 10 µM; read-out: score (%)
T30 construct: purchased DiscoveRx (KinomeScan)

[31] = target: T31, KinomeScan kinase panel (Plasmodium falciparum, UniProt P62344); settings: PFCDPK1(P.falciparum), 10 µM; read-out: score (%)
T31 construct: purchased DiscoveRx (KinomeScan)

[32] = target: T32, KinomeScan kinase panel (Homo sapiens, UniProt P23443); settings: kinase S6K1; 10 µM; read-out: score (%)
T32 construct: purchased DiscoveRx (KinomeScan)

[33] = target: T33, KinomeScan kinase panel (Homo sapiens, UniProt Q5S007); settings: LRRK2, 10 µM; read-out: score (%)
T33 construct: purchased DiscoveRx (KinomeScan)

T1 sequence (Q56UN5 whole entry): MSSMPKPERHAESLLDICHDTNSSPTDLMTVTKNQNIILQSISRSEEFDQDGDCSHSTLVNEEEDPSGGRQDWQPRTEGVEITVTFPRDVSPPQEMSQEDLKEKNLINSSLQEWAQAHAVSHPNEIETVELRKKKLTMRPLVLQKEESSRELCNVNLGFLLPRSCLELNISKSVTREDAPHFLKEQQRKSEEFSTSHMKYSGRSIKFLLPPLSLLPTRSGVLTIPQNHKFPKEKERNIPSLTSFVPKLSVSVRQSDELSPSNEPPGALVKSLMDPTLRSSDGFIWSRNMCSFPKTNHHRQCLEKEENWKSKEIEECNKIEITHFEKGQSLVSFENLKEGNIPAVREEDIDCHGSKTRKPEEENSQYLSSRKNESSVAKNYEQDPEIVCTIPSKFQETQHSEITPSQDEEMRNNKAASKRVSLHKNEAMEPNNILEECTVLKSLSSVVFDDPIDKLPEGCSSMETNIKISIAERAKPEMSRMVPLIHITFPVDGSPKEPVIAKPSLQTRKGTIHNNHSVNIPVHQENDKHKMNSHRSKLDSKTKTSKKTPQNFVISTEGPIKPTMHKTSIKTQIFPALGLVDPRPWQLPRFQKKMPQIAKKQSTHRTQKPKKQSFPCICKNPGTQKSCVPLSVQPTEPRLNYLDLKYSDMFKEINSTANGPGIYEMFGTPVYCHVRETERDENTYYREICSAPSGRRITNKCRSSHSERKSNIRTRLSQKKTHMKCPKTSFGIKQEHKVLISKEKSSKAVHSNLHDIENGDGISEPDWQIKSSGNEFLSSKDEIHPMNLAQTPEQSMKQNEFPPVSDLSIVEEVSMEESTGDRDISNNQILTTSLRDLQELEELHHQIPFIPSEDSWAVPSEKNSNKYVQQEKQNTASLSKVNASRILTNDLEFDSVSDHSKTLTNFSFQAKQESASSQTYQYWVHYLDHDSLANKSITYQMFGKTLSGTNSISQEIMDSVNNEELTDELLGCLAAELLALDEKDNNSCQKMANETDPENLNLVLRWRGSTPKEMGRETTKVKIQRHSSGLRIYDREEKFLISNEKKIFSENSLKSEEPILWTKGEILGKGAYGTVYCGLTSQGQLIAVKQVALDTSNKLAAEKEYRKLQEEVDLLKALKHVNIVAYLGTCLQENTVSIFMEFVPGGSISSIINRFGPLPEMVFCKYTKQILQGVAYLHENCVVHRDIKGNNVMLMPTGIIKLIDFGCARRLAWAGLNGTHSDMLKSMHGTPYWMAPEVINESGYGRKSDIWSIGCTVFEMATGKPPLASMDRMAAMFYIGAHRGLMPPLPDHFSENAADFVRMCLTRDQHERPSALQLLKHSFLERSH

CCN1CCN(Cc2ccc(NC(=O)c3ccc(C)c(NC(=O)c4cncc(-c5cccs5)c4)c3)cc2C(F)(F)F)CC1 [ALW-II-41-27]
remaining binding at 10 µM [1]: 21% | remaining binding at 10 µM [2]: > 30% | remaining binding at 10 µM [3]: > 30% | remaining binding at 10 µM [4]: > 30% | remaining binding at 10 µM [5]: 9.8% | remaining binding at 10 µM [6]: 0.15% | remaining binding at 10 µM [7]: > 30% | score (%) ([8]; QSK): nb (Hits values higher than 30% were considered negative (no binding: nb)) | remaining binding at 10 µM [9]: > 30% | remaining binding at 10 µM [10]: > 30%

CCN1CCN(Cc2ccc(NC(=O)c3ccc(C)c(C#Cc4cccnc4)c3)cc2C(F)(F)F)CC1 [XMD15-44]
remaining binding at 10 µM ([11]; CDK4-cyclinD1, 10 µM): 21% | remaining binding at 10 µM ([11]; CDK4-cyclinD3, 10 µM): > 30% | remaining binding at 10 µM [12]: 9.1% | remaining binding at 10 µM [13]: 27% | remaining binding at 10 µM [14]: > 30% | remaining binding at 10 µM [15]: 7.5% | remaining binding at 10 µM [16]: > 30% | remaining binding at 10 µM [17]: 0.4% | remaining binding at 10 µM [1]: 0.1% | remaining binding at 10 µM [18]: 53% | remaining binding at 10 µM [2]: 100% | remaining binding at 10 µM [3]: > 30% | score (%) [19]: nb (Hits values higher than 30% were considered negative (no binding: nb)) | remaining binding at 10 µM [20]: > 30% | remaining binding at 10 µM [4]: 12% | remaining binding at 10 µM [21]: > 30% | remaining binding at 10 µM [5]: 0.65% | remaining binding at 10 µM [6]: > 30% | remaining binding at 10 µM [22]: 42% | remaining binding at 10 µM [23]: 87% | remaining binding at 10 µM [24]: 6% | remaining binding at 10 µM [25]: 81% | remaining binding at 10 µM [7]: 9% | remaining binding at 10 µM [26]: 89% | score (%) ([8]; kinase QSK): 70% | remaining binding at 10 µM [27]: 6.4% | remaining binding at 10 µM [28]: 72% | remaining binding at 10 µM [9]: > 30% | remaining binding at 10 µM [29]: 0.15% | remaining binding at 10 µM [30]: > 30% | remaining binding at 10 µM [10]: > 30% | remaining binding at 10 µM [31]: 0.05% | remaining binding at 10 µM [32]: 11% | remaining binding at 10 µM [33]: 3.4%
